Data on ten compounds can be found in patent US12472168B2, “Ring-fused thiazolino 2-pyridones, methods for preparation thereof and their use in the treatment and/or prevention of a disease involving gram-positive bacteria” (Quretech Bio AB, priority 2017, dated 2025).

Values after ≈ are worked out from the molar mass of the structure shown. Counter-ions that a name gives are not always drawn. Like-named read-outs stand apart in the source and are kept apart here. A value given as a limit tells only on which side of the number the result lay.

One test relates to MRSA. As to the kind of experiment: Minimum Inhibitory Concentration (MIC) and Minimum Bactericidal Concentration (MBC) assays. It counts as cell-based, Methicillin-resistant Staphylococcus aureus. The following applies: compound alone, no antibiotic, overnight (18 hrs). The procedure:
(§1) MIC was defined by the lowest concentration of the test compound that inhibits visible growth of pathogen of interest. The optical density of the pathogen of interest culture was measured by OD600.
(§2) MBC was determined colony forming units (CFUs) enumeration by serially diluting and plating bacterial cultures on BHI plates.
(§3) Thus, no antibiotic was used in Table 2.

For a further test, the system named is E. faecalis. Briefly: MIC and MBC assays. The class given is cell-based. To be noted: Enterococcus faecalis, compound alone, no antibiotic, overnight (18 hrs). The procedure:
as §1, §2, §3

[1] abbreviates: Staphylococcus aureus, 18 h, read-out: MIC.

For the compound `C=CCOc1ccc(-c2sc3c(OC)c(Cc4cccc5ccccc45)cc(=O)n3c2C(=O)O)cc1C` [Example 21, 8-[4-(Allyloxy)-3-methyl-phenyl]-5-methoxy-4-[(1-naphthyl)methyl]-2-oxo-7-thia-1-azabicyclo[4.3.0]nona-3,5,8-triene-9-carboxylic acid], the MIC (in general, the smallest concentration in the dilution series that meets the test's criterion for growth inhibition) in the test on MRSA (setting [1]) is 19 µM (≈ 9.72 µg/mL); against E. faecalis, more than 100 µM.

For `COc1c(Cc2cccc3ccccc23)cc(=O)n2c(C(=O)O)c(-c3ccc(OCC4CC4)c(C)c3)sc12` [Example 26, 8-[4-(Cyclopropylmethoxy)-3-methyl-phenyl]-5-methoxy-4-[(1-naphthyl)methyl]-2-oxo-7-thia-1-azabicyclo[4.3.0]nona-3,5,8-triene-9-carboxylic acid], the MIC with MRSA (setting [1]) was 12 µM (≈ 6.31 µg/mL); in the test on E. faecalis it was more than 100 µM.

As for `CCCCCCn1cc(-c2sc3c(OC)c(Cc4cccc5ccccc45)cc(=O)n3c2C(=O)O)nn1` [Example 15, 8-(1-Hexyl-1H-1,2,3-triazol-4-yl)-5-methoxy-4-[(1-naphthyl)methyl]-2-oxo-7-thia-1-azabicyclo[4.3.0]nona-3,5,8-triene-9-carboxylic acid], the MIC in the test on MRSA (setting [1]) was 100 µM (≈ 51.7 µg/mL).

On to `CCCCCCn1cc(-c2sc3c(OC)c(Cc4cccc5ccccc45)cc(=O)n3c2C(=O)O)nn1` [Example 16, 8-(1-Hexyl-1H-1,2,3-triazol-4-yl)-5-methoxy-4-[(1-naphthyl)methyl]-2-oxo-7-thia-1-azabicyclo[4.3.0]nona-3,5,8-triene-9-carboxylic acid imidazole salt], for which, in the test on MRSA, the minimal inhibitory concentration (MIC) is reported as 200/nd uM.

Consider `C=CCCCCOc1ccc(-c2sc3c(OC)c(Cc4cccc5ccccc45)cc(=O)n3c2C(=O)O)cc1C` [Example 25, 8-[4-(5-Hexenyloxy)-3-methyl-phenyl]-5-methoxy-4-[(1-naphthyl)methyl]-2-oxo-7-thia-1-azabicyclo[4.3.0]nona-3,5,8-triene-9-carboxylic acid], for which the MIC is 45 µM (≈ 24.9 µg/mL) in the test with MRSA (setting [1]) and more than 100 µM against E. faecalis.

Regarding `C#CCCCCOc1ccc(-c2sc3c(OC)c(Cc4cccc5ccccc45)cc(=O)n3c2C(=O)O)cc1C` [Example 22, 8-[4-(5-Hexynyloxy)-3-methyl-phenyl]-5-methoxy-4-[(1-naphthyl)methyl]-2-oxo-7-thia-1-azabicyclo[4.3.0]nona-3,5,8-triene-9-carboxylic acid], the MIC in the test with MRSA (setting [1]) was 6 µM (≈ 3.31 µg/mL); with E. faecalis, more than 100 µM.

In the case of `COc1c(Cc2cccc3ccccc23)cc(=O)n2c(C(=O)O)c(-c3ccc(OCCC=C(C)C)c(C)c3)sc12` [Example 24, 5-Methoxy-8-[4-(4-methyl-3-pentenyloxy)-3-methyl-phenyl]-4-[(1-naphthyl)methyl]-2-oxo-7-thia-1-azabicyclo[4.3.0]nona-3,5,8-triene-9-carboxylic acid], the results for the MIC in the test on MRSA (setting [1]) and in the test on E. faecalis were 45 µM (≈ 24.9 µg/mL) and more than 100 µM, respectively.

Take `COCCOc1ccc(-c2sc3c(OC)c(Cc4cccc5ccccc45)cc(=O)n3c2C(=O)O)cc1C` [Example 17, 5-Methoxy-8-[4-(2-methoxyethoxy)-3-methyl-phenyl]-4-[(1-naphthyl)methyl]-2-oxo-7-thia-1-azabicyclo[4.3.0]nona-3,5,8-triene-9-carboxylic acid]: in the test with MRSA (setting [1]), the MIC was more than 25 µM.

Take `CCCCCCOc1ccc(-c2sc3c(N)c(Cc4cccc5ccccc45)cc(=O)n3c2C(=O)O)cc1C` [Example 27, 5-Amino-8-[4-(hexyloxy)-3-methyl-phenyl]-4-[(1-naphthyl)methyl]-2-oxo-7-thia-1-azabicyclo[4.3.0]nona-3,5,8-triene-9-carboxylic acid]: in the test on MRSA (setting [1]), the MIC is 25 µM (≈ 13.5 µg/mL).

For the compound `COCCOc1ccc(-c2sc3c(C4CC4)c(Cc4cccc5ccccc45)cc(=O)n3c2C(=O)O)cc1C` [Example 18, 5-Cyclopropyl-8-[4-(2-methoxyethoxy)-3-methyl-phenyl]-4-[(1-naphthyl)methyl]-2-oxo-7-thia-1-azabicyclo[4.3.0]nona-3,5,8-triene-9-carboxylic acid], the MIC in the test with MRSA (setting [1]) was more than 25 µM.
